The values below come from patent US20260317333A1, “Heteroaryl Compounds as Ligand Directed Degraders of IRAK4” (Celgene Corporation, priority 2023, published 2026).

Where a name gives a salt, the structure may show the parent alone.

The target of this assay is T1, IRAK4 (Homo sapiens, UniProt Q9NWZ3).
T1 sequence (Q9NWZ3 1-460): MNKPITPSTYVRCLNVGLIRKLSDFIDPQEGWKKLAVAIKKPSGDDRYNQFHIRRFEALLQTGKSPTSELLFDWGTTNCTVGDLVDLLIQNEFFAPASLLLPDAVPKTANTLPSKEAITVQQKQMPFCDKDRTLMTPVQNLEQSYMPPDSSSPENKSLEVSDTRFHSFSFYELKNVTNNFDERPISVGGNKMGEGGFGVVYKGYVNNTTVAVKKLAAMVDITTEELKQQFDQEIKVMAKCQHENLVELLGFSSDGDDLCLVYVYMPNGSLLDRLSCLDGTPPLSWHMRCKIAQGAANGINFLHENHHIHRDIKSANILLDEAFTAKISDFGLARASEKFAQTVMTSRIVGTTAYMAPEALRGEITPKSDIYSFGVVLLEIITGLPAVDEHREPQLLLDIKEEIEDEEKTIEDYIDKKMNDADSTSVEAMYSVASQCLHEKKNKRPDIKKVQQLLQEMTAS
As to the kind of experiment: ALE THP1 HTRF (IRAK4 degradation in THP1 cells, HTRF with anti-IRAK4 antibodies). The assay is classed as cell-based. Details: THP1 Homogeneous Time Resolved Fluorescence (ALE THP1 HTRF) Procedure; endogenous in cells; host or cells: THP1. Particulars: THP1 cell lysate; for DC50: read-out: ALE THP1 HTRF EC50. The procedure:
Cell culture media was prepared in a tissue culture hood in a sterile environment by adding 10% FBS and 1% Penicillin Streptomycin to 500 mL no phenol red RPMI 1640 media. The media was filtered through a Nalgene Bottle Top Filter and stored at 4° C.
For Homogenous Time Resolved Fluorescence (HTRF) assays, a Cisbio HTRF kit was used, which included: Lysis Buffer #1 4×, Blocking Reagent #3 100×, 20× Antibody 1 (Anti-IRAK4 d2), 20× Antibody 2 (Anti-IRAK4 k), and Detection Buffer.
4× Lysis Buffer was stored at 4° C. For use as 1× Lysis buffer, the 4× solution was diluted with de-ionized water (distilled water, Gibco Cat. #15230279) and 100× Blocking Reagent in a 1:3:0.04 volume ratio.
20× Antibody Solution aliquots were stored at −80° C. and the Detection Buffer was stored at 4° C. For use as a 1× Antibody Solution, the 20× Antibody Solution aliquot was diluted with Detection Buffer in a 1:19 volume ratio.
Cells were lysed at room temperature for 45 min with shaking. A BCA protein assay was performed and normalization was conducted to the desired total protein concentration with 1× lysis buffer. Next, 1× Antibody Solutions were prepared by adding 380 μL Detection Buffer to 20 μL 20× Antibody Solution aliquots and mixing well. 1× Antibody Solutions were combined 1:1 and briefly vortexed. For control wells, 20 μL 1× anti IRAK4-k Antibody Solution was saved. The 384-well plate (ProxiPlate-384 Plus, Perkin Elmer Cat. #6008289) was loaded by adding 4 μL of the mixed Antibody Solution to empty wells using a single channel repeater. Using a multi-channel repeater, 16 μL lysate was added per well, and any bubbles that were formed were popped with 20 μL pipette tips and Kimwipe edges. In column 10, triplicates of each control were prepared. In wells A10, B10, and C10, buffer control was prepared by adding 16 μL Lysis Buffer and 4 μL Detection Buffer. In wells D10, E10, and F10, cryptate control was prepared by adding 16 μL Lysis Buffer, 2 μL Detection Buffer, and 2 μL 1× anti-IRAK4-k Antibody Solution. In wells G10, H10, and I10, a negative control was prepared by adding 16 μL Lysis Buffer and 4 μL mixed Antibody Solution. The plate was sealed with a clear seal and covered with an aluminum lid. The plate was spun down at 800 g for 5 min and incubated in the dark at room temperature overnight. The next day, the plate was spun down at 800 g for 5 min. The samples were analyzed by a plate reader (Envision, PerkinElmer) using the Desnor 384 HTRF program.
For orientation: TR-FRET usually uses a lanthanide donor and a delayed reading to cut background.

For the compound `N[C@@H]1C[C@@H](F)CN(c2ccn3ncc(C(=O)Nc4cn([C@H]5CC[C@H](CCN6CCC[C@H](c7ccc(C8CCC(=O)NC8=O)cc7)C6)CC5)nc4C(F)F)c3n2)C1` (stereo in doubt) [Compound P-29], the “ALE THP1 HTRF YMIN” value is above 95% and the DC50 is above 10000 nM.
For `N[C@@H]1C[C@@H](F)CN(c2ccn3ncc(C(=O)Nc4cn([C@H]5CC[C@H](CN6CCN(C(=O)c7ccc(C8CCC(=O)NC8=O)cc7)CC6)CC5)nc4C(F)(F)F)c3n2)C1` (stereo partly shown) [Compound P-4], the “ALE THP1 HTRF YMIN” value is 32% and the DC50 is above 10000 nM.
Taken in the same sequence, the figures for `N[C@@H]1C[C@@H](F)CN(c2ccn3ncc(C(=O)Nc4cn([C@H]5CC[C@H](CN6CCC(Nc7ccc(C8CCC(=O)NC8=O)cc7)CC6)CC5)nc4C(F)(F)F)c3n2)C1` (stereo partly drawn) [Compound P-5, N-[1-[4-[[4-[4-(2,6-dioxo-3-piperidyl)anilino]-1-piperidyl]methyl]cyclohexyl]-3-(trifluoromethyl)pyrazol-4-yl]-5-[(3R,5R)-3-amino-5-fluoro-1-piperidyl]pyrazolo[1,5-a]pyrimidine-3-carboxamide hydrochloride] were 45% and 57 nM.
Taken in the same sequence, the figures for `N[C@@H]1C[C@@H](F)CN(c2ccn3ncc(C(=O)Nc4cn([C@H]5CC[C@H](CN6CCC(CNc7cccc(C8CCC(=O)NC8=O)c7)CC6)CC5)nc4C(F)(F)F)c3n2)C1` (stereo partly drawn) [Compound P-6, 5-((3R,5R)-3-amino-5-fluoropiperidin-1-yl)-N-(1-((1r,4r)-4-((4-(((3-(2,6-dioxopiperidin-3-yl)phenyl)amino)methyl)piperidin-1-yl)methyl)cyclohexyl)-3-(trifluoromethyl)-1H-pyrazol-4-yl) pyrazolo[1,5-a]pyrimidine-3-carboxamide hydrochloride] were 15% and 17 nM.
Taken in the same sequence, the figures for `N[C@@H]1C[C@@H](F)CN(c2ccn3ncc(C(=O)Nc4cn([C@H]5CC[C@H](CN6CCC(Nc7cccc(C8CCC(=O)NC8=O)c7)CC6)CC5)nc4C(F)(F)F)c3n2)C1` (stereo partly shown) [Compound P-8] were above 95% and above 10000 nM.
As for `N[C@@H]1C[C@@H](F)CN(c2ccn3ncc(C(=O)Nc4cn([C@H]5CC[C@H](C(=O)N6CCN(Cc7ccc(C8CCC(=O)NC8=O)cc7)CC6)CC5)nc4C(F)(F)F)c3n2)C1` (stereo partly shown) [Compound P-12], the “ALE THP1 HTRF YMIN” value came out at 57% and the DC50 turned out to be 6860 nM.
Regarding `N[C@@H]1C[C@@H](F)CN(c2ccn3ncc(C(=O)Nc4cn([C@H]5CC[C@H](CN6CCN(Cc7ccc(C8CCC(=O)NC8=O)cc7)CC6)CC5)nc4C(F)(F)F)c3n2)C1` (stereo partly shown) [Compound P-13], the “ALE THP1 HTRF YMIN” value is 18% and the DC50 worked out at 405 nM.
On to `N[C@@H]1C[C@@H](F)CN(c2ccn3ncc(C(=O)Nc4cn([C@H]5CC[C@H](C(=O)NC6CCN(c7cccc(C8CCC(=O)NC8=O)c7)CC6)CC5)nc4C(F)F)c3n2)C1` (stereo partly shown) [Compound P-14], for which the “ALE THP1 HTRF YMIN” value is recorded as 64% and the DC50 is above 10000 nM.
Taken in the same sequence, the figures for `N[C@@H]1C[C@@H](F)CN(c2ccn3ncc(C(=O)Nc4cn([C@H]5CC[C@H](C(=O)NC6CCN(c7ccc(C8CCC(=O)NC8=O)cc7)CC6)CC5)nc4C(F)F)c3n2)C1` (stereo partly drawn) [Compound P-15, 5-[(3R,5R)-3-amino-5-fluoro-1-piperidyl]-N-[3-(difluoromethyl)-1-[4-[[1-[4-(2,6-dioxo-3-piperidyl)phenyl]-4-piperidyl]carbamoyl]cyclohexyl]pyrazol-4-yl]pyrazolo[1,5-a]pyrimidine-3-carboxamide hydrochloride] were 11% and 4 nM.
Taken in the same sequence, the figures for `CN(CC1CCN(C(=O)[C@H]2CC[C@H](n3cc(NC(=O)c4cnn5ccc(N6C[C@H](N)C[C@@H](F)C6)nc45)c(C(F)F)n3)CC2)CC1)c1cccc(C2CCC(=O)NC2=O)c1` (stereo partly drawn) [Compound P-16, 5-((3R,5R)-3-amino-5-fluoropiperidin-1-yl)-N-(3-(difluoromethyl)-1-((1r,4r)-4-(4-(((3-(2,6-dioxopiperidin-3-yl)phenyl)(methyl)amino)methyl)piperidine-1-carbonyl)cyclohexyl)-1H-pyrazol-4-yl)pyrazolo[1,5-a]pyrimidine-3-carboxamide hydrochloride] were 18% and 28 nM.
Regarding `N[C@@H]1C[C@@H](F)CN(c2ccn3ncc(C(=O)Nc4cn([C@H]5CC[C@H](C(=O)N6CCC7(CC6)CN(c6cccc(C8CCC(=O)NC8=O)c6)C7)CC5)nc4C(F)F)c3n2)C1` (stereo partly shown) [Compound P-17], the “ALE THP1 HTRF YMIN” value was found to be 73% and the DC50 was above 10000 nM.
Take `N[C@@H]1C[C@@H](F)CN(c2ccn3ncc(C(=O)Nc4cn([C@H]5CC[C@H](CN6CCC7(CC6)CN(c6cccc(C8CCC(=O)NC8=O)c6)C7)CC5)nc4C(F)F)c3n2)C1` (stereo partly shown) [Compound P-18]: the “ALE THP1 HTRF YMIN” value was determined as 13% and the DC50 worked out at 9180 nM.
Taken in the same sequence, the figures for `CN(CC1CCN(C[C@H]2CC[C@H](n3cc(NC(=O)c4cnn5ccc(N6C[C@H](N)C[C@@H](F)C6)nc45)c(C(F)F)n3)CC2)CC1)c1cccc(C2CCC(=O)NC2=O)c1` (stereo partly drawn) [Compound P-19, N-[3-(Difluoromethyl)-1-[4-[4-[[3-(2,6-dioxo-3-piperidyl)-N-methyl-anilino]methyl]-1-piperidyl]methyl]cyclohexyl]pyrazol-4-yl]-5-[(3R,5R)-3-amino-5-fluoro-1-piperidyl]pyrazolo[1,5-a]pyrimidine-3-carboxamide dihydrochloride] were 11% and 10 nM.
Taken in the same sequence, the figures for `N[C@@H]1C[C@@H](F)CN(c2ccn3ncc(C(=O)Nc4cn([C@H]5CC[C@H](CCN6CCC(c7ccc(C8CCC(=O)NC8=O)cc7)CC6)CC5)nc4C(F)F)c3n2)C1` (stereo partly shown) [Compound P-20] were 12% and 11 nM.
Taken in the same sequence, the figures for `N[C@@H]1C[C@@H](F)CN(c2ccn3ncc(C(=O)Nc4cn([C@H]5CC[C@H](CCN6CCN(c7ccc(C8CCC(=O)NC8=O)cc7)CC6)CC5)nc4C(F)F)c3n2)C1` (stereo partly drawn) [Compound P-21, N-[3-(Difluoromethyl)-1-[4-[2-[4-[4-(2,6-dioxo-3-piperidyl)phenyl]piperazin-1-ylethyl]cyclohexyl]pyrazol-4-yl]-5-[(3R,5R)-3-amino-5-fluoro-1-piperidyl]pyrazolo[1,5-a]pyrimidine-3-carboxamide formic acid salt] were 15% and 10 nM.
Regarding `N[C@@H]1C[C@@H](F)CN(c2ccn3ncc(C(=O)Nc4cn([C@H]5CC[C@H](CCN6CCN(c7cccc(C8CCC(=O)NC8=O)c7)CC6)CC5)nc4C(F)F)c3n2)C1` (stereo partly shown) [Compound P-22], the “ALE THP1 HTRF YMIN” value was 43% and the DC50 is 3010 nM.
Taken in the same sequence, the figures for `N[C@@H]1C[C@@H](F)CN(c2ccn3ncc(C(=O)Nc4cn([C@H]5CC[C@H](CCN6CCC7(CC6)CN(c6ccc(C8CCC(=O)NC8=O)cc6)C7)CC5)nc4C(F)F)c3n2)C1` (stereo partly drawn) [Compound P-23, N-[3-(Difluoromethyl)-1-[4-[2-[2-[4-(2,6-dioxo-3-piperidyl)phenyl]-2,7-diazaspiro[3.5]nonan-7-yl]ethyl]cyclohexyl]pyrazol-4-yl]-5-[(3R,5R)-3-amino-5-fluoro-1-piperidyl]pyrazolo[1,5-a]pyrimidine-3-carboxamide formic acid salt] were 15% and 11 nM.
